This passage reports Km results from PMC5730985 (Analytical biochemistry, 2017).

Molecules are shown by their SMILES. Where two headings read alike, the source gives them in different places.

The assay deals with PLR3. Put plainly: light-based bioluminescence assay. It counts as biochemical, Photinus pyralis. The conditions noted are these: pH 7.4.

On to `O=C(O)[C@H]1CSC(c2nc3ccc(O)cc3s2)=N1` [LH2], for which the Km (read-out: Km (μM) / LH2, co-substrate Mg-ATP, O2) was 17 ± 3 µM. As for `Nc1ncnc2c1ncn2[C@@H]1O[C@H](COP(=O)(O)OP(=O)(O)OP(=O)(O)O)[C@@H](O)[C@H]1O` [Mg-ATP], for the setting “read-out: Km (μM) / Mg-ATP, co-substrate LH2, O2, Mg complex”, the Km was 12 ± 2 µM.
